# Data as given in patent US20070049564A1 (Wyeth, priority 2005, published 2007).
# Read-outs that look alike come from different tables or passages of the source.
# Legend:
# Experiment in all cases: MIC, broth microdilution
# [1] = tested on: E. coli GC 2235; conditions: Escherichia coli
# [2] = tested on: E. coli GC 2233; conditions: Escherichia coli
# [3] = tested on: E. coli GC 2234; conditions: Escherichia coli
# [4] = tested on: E. coli GC 2270; conditions: Escherichia coli
# [5] = tested on: E. coli GC 2271; conditions: Escherichia coli
# [6] = tested on: E. coli GC 4559; conditions: Escherichia coli
# [7] = tested on: E. coli GC 4560; conditions: Escherichia coli
# [8] = tested on: E. coli GC 6465; conditions: Escherichia coli
# [9] = tested on: E. coli GC 3226; conditions: Escherichia coli
# [10] = tested on: E. coli GC 2203; conditions: Escherichia coli
# [11] = tested on: E. coli GC 1073; conditions: Escherichia coli
# [12] = tested on: S. typhimurium GC 2172; conditions: Salmonella enterica, TYPHIMURIUM
# [13] = tested on: S. aureus GC 6466; conditions: Staphylococcus aureus
# [14] = tested on: S. aureus GC 6467; conditions: Staphylococcus aureus
# [15] = tested on: S. aureus GC 1079; conditions: Staphylococcus aureus
# [16] = tested on: S. aureus GC 6335; conditions: Staphylococcus aureus
# [17] = tested on: S. aureus GC 6469; conditions: Staphylococcus aureus
# [18] = tested on: E. faecium GC 4556; conditions: Enterococcus faecium
# [19] = tested on: S. pyogenes GC 4563; conditions: Streptococcus pyogenes
# [20] = tested on: S. agalactiae GC 4564; conditions: Streptococcus agalactiae
# [21] = GC2235, read-out: MINIMAL INHIBITORY CONCENTRATION MIC, pre-incubated in Mouse Serum
# [22] = GC2235, read-out: MINIMAL INHIBITORY CONCENTRATION MIC, pre-incubated in Water
# [23] = GC2233, read-out: MINIMAL INHIBITORY CONCENTRATION MIC, pre-incubated in Mouse Serum
# [24] = GC2233, read-out: MINIMAL INHIBITORY CONCENTRATION MIC, pre-incubated in Water
# [25] = GC2234, read-out: MINIMAL INHIBITORY CONCENTRATION MIC, pre-incubated in Mouse Serum
# [26] = GC2234, read-out: MINIMAL INHIBITORY CONCENTRATION MIC, pre-incubated in Water
# [27] = GC2270, read-out: MINIMAL INHIBITORY CONCENTRATION MIC, pre-incubated in Mouse Serum
# [28] = GC2270, read-out: MINIMAL INHIBITORY CONCENTRATION MIC, pre-incubated in Water
# [29] = GC2271, read-out: MINIMAL INHIBITORY CONCENTRATION MIC, pre-incubated in Mouse Serum
# [30] = GC2271, read-out: MINIMAL INHIBITORY CONCENTRATION MIC, pre-incubated in Water
# [31] = GC4559, read-out: MINIMAL INHIBITORY CONCENTRATION MIC, pre-incubated in Mouse Serum
# [32] = GC4559, read-out: MINIMAL INHIBITORY CONCENTRATION MIC, pre-incubated in Water
# [33] = GC4560, read-out: MINIMAL INHIBITORY CONCENTRATION MIC, pre-incubated in Mouse Serum
# [34] = GC4560, read-out: MINIMAL INHIBITORY CONCENTRATION MIC, pre-incubated in Water
# [35] = GC6465, read-out: MINIMAL INHIBITORY CONCENTRATION MIC, pre-incubated in Mouse Serum
# [36] = GC6465, read-out: MINIMAL INHIBITORY CONCENTRATION MIC, pre-incubated in Water
# [37] = GC3226, read-out: MINIMAL INHIBITORY CONCENTRATION MIC, pre-incubated in Mouse Serum
# [38] = GC3226, read-out: MINIMAL INHIBITORY CONCENTRATION MIC, pre-incubated in Water
# [39] = GC2203, read-out: MINIMAL INHIBITORY CONCENTRATION MIC, pre-incubated in Mouse Serum
# [40] = GC2203, read-out: MINIMAL INHIBITORY CONCENTRATION MIC, pre-incubated in Water
# [41] = GC1073, read-out: MINIMAL INHIBITORY CONCENTRATION MIC, pre-incubated in Mouse Serum
# [42] = GC1073, read-out: MINIMAL INHIBITORY CONCENTRATION MIC, pre-incubated in Water
# [43] = read-out: MINIMAL INHIBITORY CONCENTRATION MIC, pre-incubated in Mouse Serum
# [44] = read-out: MINIMAL INHIBITORY CONCENTRATION MIC, pre-incubated in Water
# [45] = GC6466, read-out: MINIMAL INHIBITORY CONCENTRATION MIC, pre-incubated in Mouse Serum
# [46] = GC6466, read-out: MINIMAL INHIBITORY CONCENTRATION MIC, pre-incubated in Water
# [47] = GC6467, read-out: MINIMAL INHIBITORY CONCENTRATION MIC, pre-incubated in Mouse Serum
# [48] = GC6467, read-out: MINIMAL INHIBITORY CONCENTRATION MIC, pre-incubated in Water
# [49] = GC1079, read-out: MINIMAL INHIBITORY CONCENTRATION MIC, pre-incubated in Mouse Serum
# [50] = GC1079, read-out: MINIMAL INHIBITORY CONCENTRATION MIC, pre-incubated in Water
# [51] = GC6335, read-out: MINIMAL INHIBITORY CONCENTRATION MIC, pre-incubated in Mouse Serum
# [52] = GC6335, read-out: MINIMAL INHIBITORY CONCENTRATION MIC, pre-incubated in Water
# [53] = GC6469, read-out: MINIMAL INHIBITORY CONCENTRATION MIC, pre-incubated in Mouse Serum
# [54] = GC6469, read-out: MINIMAL INHIBITORY CONCENTRATION MIC, pre-incubated in Water
# [55] = GC4556, read-out: MINIMAL INHIBITORY CONCENTRATION MIC, pre-incubated in Mouse Serum
# [56] = GC4556, read-out: MINIMAL INHIBITORY CONCENTRATION MIC, pre-incubated in Water
# [57] = GC4563, read-out: MINIMAL INHIBITORY CONCENTRATION MIC, pre-incubated in Mouse Serum
# [58] = GC4563, read-out: MINIMAL INHIBITORY CONCENTRATION MIC, pre-incubated in Water
# [59] = GC4564, read-out: MINIMAL INHIBITORY CONCENTRATION MIC, pre-incubated in Mouse Serum
# [60] = GC4564, read-out: MINIMAL INHIBITORY CONCENTRATION MIC, pre-incubated in Water
SMILES,"MIC [1, 21] [µg/mL]","MIC [1, 22] [µg/mL]","MIC [2, 23] [µg/mL]","MIC [2, 24] [µg/mL]","MIC [3, 25] [µg/mL]","MIC [3, 26] [µg/mL]","MIC [4, 27] [µg/mL]","MIC [4, 28] [µg/mL]","MIC [5, 29] [µg/mL]","MIC [5, 30] [µg/mL]","MIC [6, 31] [µg/mL]","MIC [6, 32] [µg/mL]","MIC [7, 33] [µg/mL]","MIC [7, 34] [µg/mL]","MIC [8, 35] [µg/mL]","MIC [8, 36] [µg/mL]","MIC [9, 37] [µg/mL]","MIC [9, 38] [µg/mL]","MIC [10, 39] [µg/mL]","MIC [10, 40] [µg/mL]",further results
"CCCN(CC(=O)Nc1cc(N(C)C)c2c(c1O)C(=O)C1=C(O)[C@]3(O)C(=O)C(C(N)=O)=C(O)[C@@H](N(C)C)[C@@H]3C[C@@H]1C2)C(=O)OCOC(=O)c1ccsc1 [Example 27, ({[(2-{[(5aR,6aS,7S,10aS)-9-(aminocarbonyl)-4,7-bis(dimethylamino)-1,8,10a,11-tetrahydroxy-10,12-dioxo-5,5a,6,6a,7,10,10a,12-octahydrotetracen-2-yl]amino}-2-oxoethyl)(propyl)amino]carbonyl}oxy)methyl thiophene-3-carboxylate]",0.5,64,0.5,64,0.5,64,0.5,64,0.5,64,0.5,> 64,0.25,1,4,> 64,0.5,> 64,0.5,> 64,"MIC [11, 41]: 0.5 µg/mL; MIC [11, 42]: > 64 µg/mL; MIC [12, 43]: 4 µg/mL; MIC [12, 44]: > 64 µg/mL; MIC [13, 45]: 0.12 µg/mL; MIC [13, 46]: 0.25 µg/mL; MIC [14, 47]: 2 µg/mL; MIC [14, 48]: 2 µg/mL; MIC [15, 49]: 1 µg/mL; MIC [15, 50]: 2 µg/mL; MIC [16, 51]: 0.25 µg/mL; MIC [16, 52]: 0.5 µg/mL; MIC [17, 53]: 1 µg/mL; MIC [17, 54]: 2 µg/mL; MIC [18, 55]: 0.5 µg/mL; MIC [18, 56]: 1 µg/mL; MIC [19, 57]: < 0.06 µg/mL; MIC [19, 58]: < 0.06 µg/mL; MIC [20, 59]: 0.12 µg/mL; MIC [20, 60]: 0.12 µg/mL"
"CCCN(CC(=O)Nc1cc(N(C)C)c2c(c1O)C(=O)C1=C(O)[C@]3(O)C(=O)C(C(N)=O)=C(O)[C@@H](N(C)C)[C@@H]3C[C@@H]1C2)C(=O)OCOC(=O)c1ccc(C(C)(C)C)cc1 [Example 28, ({[(2-{[(5aR,6aS,7S,10aS)-9-(aminocarbonyl)-4,7-bis(dimethylamino)-1,8,10a,11-tetrahydroxy-10,12-dioxo-5,5a,6,6a,7,10,10a,12-octahydrotetracen-2-yl]amino}-2-oxoethyl)(propyl)amino]carbonyl}oxy)methyl 4-tert-butylbenzoate]",0.5,> 64,0.5,> 64,0.25,> 64,0.5,> 64,0.25,> 64,0.5,> 64,0.25,> 64,8,> 64,0.5,> 64,0.5,> 64,"MIC [11, 41]: 0.5 µg/mL; MIC [11, 42]: > 64 µg/mL; MIC [12, 43]: 8 µg/mL; MIC [12, 44]: > 64 µg/mL; MIC [13, 45]: 0.5 µg/mL; MIC [13, 46]: 4 µg/mL; MIC [14, 47]: 4 µg/mL; MIC [14, 48]: 64 µg/mL; MIC [15, 49]: 2 µg/mL; MIC [15, 50]: 64 µg/mL; MIC [16, 51]: 1 µg/mL; MIC [16, 52]: 16 µg/mL; MIC [17, 53]: 4 µg/mL; MIC [17, 54]: 64 µg/mL; MIC [18, 55]: 0.5 µg/mL; MIC [18, 56]: 32 µg/mL; MIC [19, 57]: < 0.06 µg/mL; MIC [19, 58]: < 0.06 µg/mL; MIC [20, 59]: 0.25 µg/mL; MIC [20, 60]: 0.5 µg/mL"
